Five compounds from patent publication US12116348B2, “Substituted benzimidazole compound and composition comprising same” (Shenzhen TargetRx, Inc., priority 2017, dated 2024) can be followed below.

For one data set, the system named is HT-29 cells. Kind of data set: Cytotoxicity experiment: viability of HT-29 cells (CellTiter-Glo). Format: cell-based. Particulars: Homo sapiens, 72 hours, CTG analysis, read-out: HT-29 cell IC50. How it is done: (1) Cytotoxicity Experiment
The inhibitory effects of the example compounds on the viability of HT-29 cells were tested.
Cell line: HT-29 (cell type: adherent; number of cells/well: 3000; medium: RPMI-1640+10% FBS) was cultured under the condition of 37° C., 5% CO2, and 95% humidity.
Materials and Reagents: Fetal bovine serum (FBS, GBICO, Cat. No. 10099-141), CellTiter-Glo® Luminescent Cell Viability Assay (Promega, Cat. No. G7572), 96-well plate with transparent flat bottom and black walls (Corning®, Cat. No. 3603).
Instruments: SpectraMax multi-label microplate reader, MD, 2104-0010A; CO2 incubator, Thermo Scientific, Model 3100 Series; biosafety cabinet, Thermo Scientific, Model 1300 Series A2; inverted microscope, Olympus, CKX41SF; refrigerator, SIEMENS, KK25E76TI.
• 1) Cell culture and inoculation: i) cells in the logarithmic growth phase were harvested and counted using a […]. The cell viability was determined by trypan blue exclusion method to ensure that the cell viability was greater than 90%; ii) the cell concentration was adjusted; and 90 μL of the cell suspension was added into a 96-well plate, respectively; iii) the cells in the 96-well plate were cultured overnight under the condition of 37° C., 5% CO2 and 95% humidity. • 2) Drug dilution and dosing: i) the 10-fold drug solutions were prepared with a maximum concentration of 100 μM, which was diluted using a 3.16-fold serial gradient dilution, resulting in 9 concentrations. 10 μL of the drug solutions was added to each well of the 96-well plate inoculated with cells; and each drug concentration was tested in triplicate; ii) the cells in the 96-well plate added with drugs were cultured under the condition of 37° C., 5% CO2 and 95% humidity for 72 hours, and then CTG analysis was carried out. • 3) Plate reading at the end point: i) CTG reagent was thawed and the cell plate was equilibrated to room temperature for 30 minutes; ii) equal volume of the CTG solution was added to each well; iii) the cell plate was shaked on the orbital shaker for 5 minutes to lyse the cells; iv) the cell plate was placed at room temperature for 20 minutes to stabilize the cold light signal; v) the cold light values were read.
Data processing: GraphPad Prism 5.0 software was used to analyze the data, and the data was fitted using the non-linear S-curve regression to get a dose-effect curve, and IC50 values were calculated accordingly. Cell viability (%)=(Lum of test drug−Lum of medium control)/(Lum of cell control−Lum of medium control)×100%.
Background: ATP-based viability assays read luminescence as a measure of living cells.

A short description of data set [1]: Metabolic stability evaluation in mouse liver microsomes. Type of data set: in vitro ADME. Particulars: SD, pH 7.4, mouse liver microsomes 0.5 mg/mL, compound 1 μM; for microsomal CLint at 1 μM: liver intrinsic clearance; for half-life at 1 μM: NADPH, 37° C. How it is done:
(2) Metabolic Stability Evaluation
Microsome assay: mouse liver microsomes: 0.5 mg/mL, Xenotech; coenzyme (NADPH/NADH): 1 mM, Sigma Life Science; magnesium chloride: 5 mM, 100 mM phosphate buffer (pH 7.4).
Preparation of stock solutions: Powder of the example compounds were accurately weighed and dissolved in DMSO to 5 mM respectively.
Preparation of phosphate buffer (100 mM, pH7.4): A pre-prepared 0.5M potassium dihydrogen phosphate (150 mL) was mixed with 0.5M dibasic potassium phosphate (700 mL). The pH of the mixture was adjusted to 7.4 with 0.5M dibasic potassium phosphate solution. The mixture was diluted 5-fold with ultrapure water before use, and magnesium chloride was added to obtain a phosphate buffer (100 mM) containing 100 mM potassium phosphate, 3.3 mM magnesium chloride, pH 7.4.
A NADPH regeneration system solution (containing 6.5 mM NADP, 16.5 mM G-6-P, 3 U/mL G-6-P D, 3.3 mM magnesium chloride) was prepared and placed on wet ice prior to use.
Preparation of stop solution: an acetonitrile solution containing 50 ng/mL propranolol hydrochloride and 200 ng/mL tolbutamide (internal standard). 25057.5 μL of phosphate buffer (pH 7.4) was taken into a 50 mL centrifuge tube, to which 812.5 μL of SD mouse liver microsomes were added, and mixed to obtain a liver microsome dilution with a protein concentration of 0.625 mg/mL.
Incubation of the samples: The stock solutions of the respective compounds were respectively diluted to 0.25 mM with an aqueous solution containing 70% acetonitrile, and used as a working solution, ready for use. 398 μL of the dilutions of mouse liver microsomes were added to 96-well incubation plates (N=2), respectively, and 2 μL of 0.25 mM working solution was added respectively and mixed.
Metabolic stability assay: 300 μL of pre-chilled stop solution was added to each well of 96-well deep well plates and placed on ice as stop plates. The 96-well incubation plates and NADPH regeneration system were placed in a 37° C. water bath, shaken at 100 rpm and pre-incubated for 5 min. 80 μL of incubation solution was taken out from each well of the incubation plates and added to the stop plates, mixed, and replenished with 20 μL of NADPH regeneration system solution as a 0-min sample. 80 μL of NADPH regeneration system solution was added to each well of the incubation plates to start the reaction and start counting. […] Separately, 100 μL of the reaction solutions was taken at 10, 30, and 90 min after the reaction, respectively, added to stop plates, and vortexed for 3 minutes to terminate the reaction. The stop plates were centrifuged at 5000×g at 4° C. for 10 min. 100 μL of the supernatant was added to a 96-well plate to which 100 μL of distilled water was previously added, mixed, and analyzed by LC-MS/MS.
Data analysis: The peak areas of the corresponding compounds and internal standard were detected by LC-MS/MS system, and the ratio of the peak area of the compounds to the internal standard was calculated.
In general terms: Liver microsomes are vesicles of endoplasmic reticulum, rich in cytochrome P450 enzymes.

Some results are limits rather than exact numbers.

Broadly, the IC50 is the point on the concentration scale where inhibition reaches its midpoint. For orientation: microsomal CLint means a measure of how fast metabolising enzymes remove a compound, apart from limits set by blood flow. A higher microsomal CLint goes with faster metabolism. Broadly, the half-life is how long it takes for the measured level to halve. As to `[2H]C([2H])([2H])n1cnc2c(F)c(Nc3ccc(Br)cc3Cl)c(C(=O)NOCCO)cc21` [A-1, 6-(4-bromo-2-chloro-phenylamino)-7-fluoro-3-(methyl-d3)-3H-benzimidazole-5-carboxylic acid (2-hydroxyethoxy)-amide], the IC50 in the data set on HT-29 cells was less than 0.5 nM. In data set [1], this compound returned an intrinsic clearance (microsomal CLint) at 1 μM of 19.7 µL/min/mg and a half-life at 1 μM of 1.17 h.

Consider `[2H]C([2H])(O)CONC(=O)c1cc2c(ncn2C([2H])([2H])[2H])c(F)c1Nc1ccc(Br)cc1Cl` [A-5, 6-(4-bromo-2-chlorophenylamino)-7-fluoro-3-(methyl-d3)-3H-benzimidazole-5-carboxylic acid (2-hydroxyethoxy-2,2-d2)amide], for which the IC50 with HT-29 cells was less than 0.5 nM. Besides, in data set [1], the microsomal CLint at 1 μM was determined as 20.9 µL/min/mg and the half-life at 1 μM came to 1.11 h.

In data set [1], `[2H]C([2H])(O)C([2H])([2H])ONC(=O)c1cc2c(ncn2C)c(F)c1Nc1ccc(Br)cc1Cl` [A-6, 6-(4-bromo-2-chlorophenylamino)-7-fluoro-3-methyl-3H-benzimidazole-5-carboxylic acid (2-hydroxyethoxy-1,1,2,2-d4)amide] gave an intrinsic metabolic clearance (microsomal CLint) at 1 μM of 19.8 µL/min/mg and a half-life at 1 μM of 1.17 h.

For `Cn1cnc2c(F)c(Nc3ccc(Br)cc3Cl)c(C(=O)NOCCO)cc21` [Selumetinib, 6-(4-bromo-2-chloro-phenylamino)-7-fluoro-3-methyl-3H-benzimidazole-5-carboxylic acid (2-hydroxy-ethoxy)-amide, reference compound], in the data set with HT-29 cells, the IC50 is less than 0.5 nM. In data set [1], this compound gave a microsomal CLint at 1 μM of 23.6 µL/min/mg and a half-life at 1 μM of 0.978 h.

As for `[2H]C([2H])(O)CONC(=O)c1cc2c(ncn2C)c(F)c1Nc1ccc(Br)cc1Cl` [A-4, 6-(4-bromo-2-chlorophenylamino)-7-fluoro-3-methyl-3H-benzimidazole-5-carboxylic acid (2-hydroxyethoxy-2,2-d2)amide], in the data set with HT-29 cells, the IC50 was less than 0.5 nM. In data set [1], this compound gave a microsomal CLint at 1 μM of 24.6 µL/min/mg and a half-life at 1 μM of 0.94 h.
